# Assay results as given in patent US20100292185A1, “BETA-LACTAMASE INHIBITORS” (priority 2009, published 2010).
# Structures can show the parent of a compound that is named as a salt. Where two headings read alike, the source gives them in different places.
# Key:
# [1] = tested on: K. pneumoniae expressing the Class A carbapenemase KPC-2; assay: microbe, parasite or virus in culture; assay type: cell-based
# Description: (§1) To determine the ability of test compounds to potentiate the inhibition of the growth of bacterial strains producing beta-lactamase enzymes, classic cell based screening assays were employed. Five bacteria strains producing beta-lactamase enzymes were used: K. pneumoniae expressing the Class A Extended Spectrum Beta-Lactamase (ESBL) CTX-M-15, E. coli expressing the Class A ESBL SHV-5, E. cloacae expressing the Class C P99+, K. pneumoniae expressing the Class A carbapenemase KPC-2, and P. aeruginosa expressing the Class B metallo β-lactamase VIM-2. In order to evaluate the ability of test compounds to inhibit beta-lactamase activity, Applicants used a modification of the broth microdilution assay. The assay was conducted in Cation Adjusted Mueller Hinton Broth (CAMHB, BD # 212322, BD Diagnostic Systems, Sparks, Md.). Bacteria strains were grown for 3-5 hours in CAMBH broth. All five strains were grown in presence of 50 μg/mL ampicillin to ensure resistance is maintained. In the meantime, test compounds were diluted in DMSO to a 0.1 mg/mL stock. The compounds were added to a microtiter plate and were diluted in 2-fold serial dilutions in CAMHB in a final concentration range of 8 μg/mL to 0.015 μg/ml. […] Each of these compound plates are made in quadruplicate, one for each bacteria strain. In addition to the titration of test compounds the MICs of a panel of cephalosporins is also tested to ensure the strains are behaving consistently from test to test. Once the test compound and cephalosporin are added the plates can be inoculated. Inocula are conducted according to CLSI broth microdilution method. After inoculation the plates are incubated for 16-20 hours at 37° C. then the Minimal Inhibitory Concentration (MIC) of the test compound is determined visually.
# (§2) Using the methodology described above, examples of the current invention were evaluated for their ability to inhibit the growth of β-lactamase producing bacteria in the presence of a β-lactam antibiotic.
# [2] = molecular target: T1, VIM-2 metallo β-lactamase (Pseudomonas aeruginosa, UniProt Q9K2N0); assay: β-lactamase enzyme inhibition assay (nitrocefin substrate), VIM-2; assay type: biochemical; conditions: nitrocefin 100 μM, 37° C., PBS pH 7.0; read-out: VIM-2 IC50
# T1 construct: made in house
# Method: (§3) Isolation of β-lactamases. For SHV-5, p99 AmpC, KPC-2 and CTX-M15 β-lactamases, E. coli BL21(DE3) bacterial cells carrying expression plasmids (expressed as native untagged proteins) for the individual β-lactamases were grown in 1 L of Superbroth (Teknova Inc. Hollister, Calif.) supplemented with 100 μg/ml kanamycin and 1×5052 (0.5% glycerol, 0.05% glucose and 0.2% α-lactose) at 35° C. for 18-20 hours. Cells were harvested by centrifugation (4,000×g, 4° C., 20 min), and resuspended in 50 ml of 10 mM HEPES pH 7.5 (1/20 of the initial volume). The cells were lysed by sonication (5 pulses of 45 seconds) at 45 W on ice. The lysates were clarified by centrifugation at 10,000×g for 40 minutes at 4° C. Samples were diluted 5-fold in 50 mM sodium acetate pH 5.0, stored overnight at 4° C., after which they were centrifuged at 10,000×g for 30 minutes to clarify, and filtered through 0.45 μm filters. The samples were loaded onto a 5 ml Capto S sepharose cation exchange column (GE Healthcare) pre-equilibrated with 50 mM sodium acetate pH 5.0. The column was washed with 5 column volumes of 50 mM sodium acetate pH 5.0 to wash out unbound protein and a linear gradient of NaCl (0 to 500 mM) was used to elute the protein (over 16 CV) from the column. Fractions were assayed for β-lactamase activity using Centa (Calbiochem, Gibbstown, N.J.) as a reporter β-lactamase substrate for activity in the isolated fractions. Active fractions were pooled, concentrated and further purified by gel filtration chromatography on a Superdex 75 prep grade gel filtration column (GE Healthcare, Piscataway, N.J.) pre-equilibrated in 50 mM Hepes pH 7.5, 150 mM NaCl. Active fractions were pooled concentrated, quantitated by BCA protein determination (Thermo Scientific, Rockford, Ill.), and frozen at −80° C. in 20% glycerol until use.
# For VIM-2 metallo (β-lactamase, the procedure was identical with the following exceptions: 1) the protein was not pH adjusted to pH 5 with 50 mM sodium acetate, 2) the chromatography step was changed to a 5 ml Q sepharose anion exchange column pre-equilibrated with 50 mM Hepes pH 7.5, and 3) elution of the protein was achieved by a linear gradient of NaCl (0-600 mM). Finally, the VIM-2 purification required a second run (3rd step) on the Q sepharose anion exchange column to achieve acceptable purity (>90%).
# (§4) β-lactamase Inhibition. To determine the level of inhibition of β-lactamase enzymes, compounds were diluted in PBS at pH 7.0 to yield concentrations between 100 and 0.005 μM in microtiter plates. An equal volume of diluted enzyme stock was added, and the plates were incubated at 37° C. for 10 min. Nitrocefin solution was then dispensed as substrate into each well at a final concentration of 100 μM, and the plates were immediately read with the kinetic program at 486 nm for 10 min on the SPECTRAMAX® Plus^384 (high-throughput microplate spectrophotometer; Molecular Devices Corp., Sunnyvale, Calif.). Maximum rates of metabolism were then compared to those in control wells (without inhibitors), and percentages of enzyme inhibition were calculated for each concentration of inhibitor. The concentration of inhibitor needed to reduce the initial rate of hydrolysis of substrate by 50% (IC50) was calculated as the residual activity of β-lactamase at 486 nm using the SoftMax Pro 5.0 software (Molecular Devices Corp.).
# (§5) Using the methodology described above, examples of the current invention were evaluated for their ability to inhibit β-lactamase enzymes. The results of these assays are summarized in Table 2 for representative enzymes across different subtypes (note SHV-5 and CTXM-15 exemplify different subclasses of Ambler Class A Extended Spectrum Beta Lactamases, KPC-2 exemplifies Class A carbapenemases, P99 represents chromosomal Class C AmpC, VIM-2 exemplifies subclass B1 of metallo-β-lactamases, and OXA-23 represents chromosome-encoded Class D oxacillin-hydrolyzing β-lactamases), NT=not tested.
# [3] = molecular target: T2, OXA-23 β-lactamase (Acinetobacter baumannii, UniProt Q9L4P2); assay: β-lactamase enzyme inhibition assay (nitrocefin substrate), OXA-23 crude extract; assay type: biochemical; conditions: nitrocefin 100 μM, 37° C., PBS pH 7.0; read-out: OXA-23 IC50
# T2 construct: crude β-lactamase extracts were prepared from 20 ml overnight cultures; endogenous in cells; host or cells: Acinetobacter baumannii cells containing OXA-23 (crude freeze-thaw extract)
# T2 sequence (Q9L4P2 18-273): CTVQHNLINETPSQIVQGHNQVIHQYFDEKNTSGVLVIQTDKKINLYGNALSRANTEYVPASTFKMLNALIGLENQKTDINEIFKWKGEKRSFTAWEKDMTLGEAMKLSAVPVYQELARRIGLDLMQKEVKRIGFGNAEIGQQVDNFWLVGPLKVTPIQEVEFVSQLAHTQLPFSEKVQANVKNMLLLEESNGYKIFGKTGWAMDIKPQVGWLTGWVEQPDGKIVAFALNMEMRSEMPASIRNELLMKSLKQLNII
# Method: For OXA-23 β-lactamase, crude β-lactamase extracts were prepared from 20 ml overnight cultures with shaking. Acenitobacter baumanni cells containing OXA-23 were further diluted 10-fold and grown to mid-log phase (OD at 600 nm, 0.5-0.8) in Mueller-Hinton II (MH-II) broth at 37° C. The cells were pelleted at 5000 g, washed and resuspended in 2 mL PBS pH 7.0. The β-lactamases were extracted by four cycles of freezing and thawing followed by centrifugation. β-lactamase activity in the extracts was measured with the chromogenic cephalosporin nitrocefin. The amount of protein in each β-lactamase preparation was determined by the bicinchoninic acid (BCA) assay.
# as §4
# [4] = molecular target: T3, p99 AmpC β-lactamase (Enterobacter cloacae, UniProt P05364); assay: β-lactamase enzyme inhibition assay (nitrocefin substrate), P99 AmpC; assay type: biochemical
# T3 construct: expressed as native untagged proteins; made in house; host or cells: E. coli BL21(DE3)
# T3 sequence (P05364 21-381): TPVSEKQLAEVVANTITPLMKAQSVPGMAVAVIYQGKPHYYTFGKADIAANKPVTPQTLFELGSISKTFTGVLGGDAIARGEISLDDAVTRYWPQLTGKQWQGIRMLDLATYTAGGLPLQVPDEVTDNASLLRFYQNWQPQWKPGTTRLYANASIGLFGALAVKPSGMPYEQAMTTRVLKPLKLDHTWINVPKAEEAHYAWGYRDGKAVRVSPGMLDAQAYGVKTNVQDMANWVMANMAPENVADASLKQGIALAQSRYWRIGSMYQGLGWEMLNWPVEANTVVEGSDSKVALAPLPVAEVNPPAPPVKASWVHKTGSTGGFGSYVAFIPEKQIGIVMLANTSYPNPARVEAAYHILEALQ
# Method: as §3, §4, §5
# [5] = molecular target: T4, SHV-5 β-lactamase (Klebsiella pneumoniae, UniProt P0A3M1); assay: β-lactamase enzyme inhibition assay (nitrocefin substrate), SHV-5; assay type: biochemical
# T4 construct: expressed as native untagged proteins; made in house; host or cells: E. coli BL21(DE3)
# T4 sequence (P0A3M1 22-286): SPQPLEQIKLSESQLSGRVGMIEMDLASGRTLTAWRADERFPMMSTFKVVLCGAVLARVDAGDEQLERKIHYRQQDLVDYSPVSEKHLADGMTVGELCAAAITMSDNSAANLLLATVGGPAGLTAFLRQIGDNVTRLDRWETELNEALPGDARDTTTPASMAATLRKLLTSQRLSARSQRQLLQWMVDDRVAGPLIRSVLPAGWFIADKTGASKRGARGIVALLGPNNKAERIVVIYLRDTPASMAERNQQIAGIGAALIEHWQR
# Method: as §3, §4, §5
# [6] = molecular target: T5, KPC-2 β-lactamase (Klebsiella pneumoniae, UniProt Q9F663); assay: β-lactamase enzyme inhibition assay (nitrocefin substrate), KPC-2; assay type: biochemical
# T5 construct: expressed as native untagged proteins; made in house; host or cells: E. coli BL21(DE3)
# T5 sequence (Q9F663 25-293 limits assumed): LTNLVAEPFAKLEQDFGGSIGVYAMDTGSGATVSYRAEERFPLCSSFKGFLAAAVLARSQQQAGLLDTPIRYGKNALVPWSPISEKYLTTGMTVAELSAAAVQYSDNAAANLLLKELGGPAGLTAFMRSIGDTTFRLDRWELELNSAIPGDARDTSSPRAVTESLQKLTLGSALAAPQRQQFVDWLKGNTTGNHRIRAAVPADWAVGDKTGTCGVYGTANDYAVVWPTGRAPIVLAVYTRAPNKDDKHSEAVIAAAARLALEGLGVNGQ
# Method: as §3, §4, §5
# [7] = tested on: K. pneumoniae expressing the Class A Extended Spectrum Beta-Lactamase (ESBL) CTX-M-15; assay: In vitro antibacterial assay of β-lactamase inhibition (broth microdilution MIC), K. pneumoniae CTX-M-15; assay type: cell-based
# Description: as §1, §2
# [8] = tested on: E. cloacae expressing the Class C P99+; assay: In vitro antibacterial assay of β-lactamase inhibition (broth microdilution MIC), E. cloacae P99+; assay type: cell-based
# Description: as §1, §2
# [9] = molecular target: T6, CTX-M15 β-lactamase (Escherichia coli, UniProt Q9EXV5); assay: β-lactamase enzyme inhibition assay (nitrocefin substrate), CTXM-15; assay type: biochemical
# T6 construct: expressed as native untagged proteins; made in house; host or cells: E. coli BL21(DE3)
# T6 sequence (Q9EXV5 entry or part of it): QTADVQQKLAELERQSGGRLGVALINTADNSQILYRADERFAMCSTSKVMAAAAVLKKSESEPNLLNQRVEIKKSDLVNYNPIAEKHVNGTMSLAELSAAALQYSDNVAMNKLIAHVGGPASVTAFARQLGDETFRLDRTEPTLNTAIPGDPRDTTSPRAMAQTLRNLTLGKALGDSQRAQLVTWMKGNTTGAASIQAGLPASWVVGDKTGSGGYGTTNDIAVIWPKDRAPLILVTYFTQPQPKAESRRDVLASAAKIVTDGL
# Method: as §3, §4, §5
# [10] = tested on: E. coli expressing the Class A ESBL SHV-5; assay: In vitro antibacterial assay of β-lactamase inhibition (broth microdilution MIC), E. coli SHV-5; assay type: cell-based
# Description: as §1, §2
# [11] = tested on: P. aeruginosa expressing the Class B metallo β-lactamase VIM-2; assay: In vitro antibacterial assay of β-lactamase inhibition (broth microdilution MIC), P. aeruginosa VIM-2; assay type: cell-based; conditions: in presence of Ceftazidime 16 μg/mL (Examples 1-56)
# Description: as §1, §2
# [12] = in presence of Ceftazidime 8 μg/ml (Examples 1-56)
# [13] = nitrocefin 100 μM, 37° C., PBS pH 7.0, read-out: P99 AmpC IC50
# [14] = in presence of Piperacillin 16 μg/ml (Examples 57-65)
Structure (SMILES),"MIC of example compound, K. pneumoniae KPC-2 [1, 12]",IC50 [2],IC50 [3],"IC50 [4, 13]",IC50 [5],IC50 [6],"MIC of example compound, K. pneumoniae CTX-M-15 [7, 12]","MIC of example compound, E. cloacae P99+ [8, 12]",IC50 [9],"MIC of example compound, E. coli SHV-5 [10, 12]","MIC of example compound, P. aeruginosa VIM-2 [11]",IC50 [4],"MIC of example compound, K. pneumoniae KPC-2 [1, 14]","MIC of example compound, K. pneumoniae CTX-M-15 [7, 14]","MIC of example compound, E. cloacae P99+ [8, 14]","MIC of example compound, E. coli SHV-5 [10, 14]"
"O=C(Cc1ccc(CN2CCCC2)cc1)N[C@@H](Cc1cccc(C(=O)O)c1O)B(O)O [Example 38, (1R)-[2-(4-pyrrolin-1-ylmethyl-phenyl)-acetylamino]-(3-carboxy-2-hydroxy)benzyl-methylboronic acid formate]",0.03 µg/mL,858 nM,234 nM,9 nM,5 nM,6 nM,0.25 µg/mL,0.5 µg/mL,3 nM,0.5 µg/mL,–,–,–,–,–,–
"Nc1ccc(CC(=O)N[C@@H](Cc2cccc(C(=O)O)c2O)B(O)O)cn1 [Example 46, (1R)-1-(6-amino-pyridin-3-yl-acetylamino)-2-(2-hydroxy-3-carboxyphenyl)ethyl-1-boronic acid formate]",0.007 µg/mL,–,209 nM,4 nM,0.7 nM,3 nM,0.03 µg/mL,0.06 µg/mL,5 nM,0.06 µg/mL,>8 µg/mL,–,–,–,–,–
"O=C(Cc1ccc(C[n+]2ccccc2)cc1)N[C@@H](Cc1cccc(C(=O)O)c1O)B(O)O [Example 42, formate]",–,> 1000 nM,153 nM,–,2 nM,10 nM,–,–,4 nM,–,–,4 nM,–,–,–,–
"O=C(Cc1ccc(CNc2ccccn2)cc1)N[C@@H](Cc1cccc(C(=O)O)c1O)B(O)O [Example 57, (1R)-1-{2-[4-(pyridin-2-ylaminomethyl)-phenyl]-acetylamino}-1-[(3-carboxy-2hydroxy)benzyl]-methylboronic acid formate]",–,–,156 nM,3 nM,2 nM,13 nM,–,–,4 nM,–,–,–,4 µg/mL,>8 µg/mL,4 µg/mL,1 µg/mL
